Laboratory results: patent US12157713B2, “Conjugated oligoelectrolytes as antimicrobial agents” (Nanyang Technological University, priority 2018, dated 2024)

Tests used:
E. coli K12 = test: MIC by broth microdilution against E. coli K12; type: cell-based; conditions: Escherichia coli, K12; broth microdilution, MHB, 18 hrs; read-out: MIC against E. coli K12
Experimental: (§1) The respective minimum inhibition concentration (MIC) of each COE molecule was determined using a broth microdilution method. Briefly, COEs were diluted via a 2-fold dilution series in 100 μL of either Muller Hinton Broth (MHB) for E. coli and S. aureus or Brain Heart Infusion Broth (BHI) for E. faecalis in a 96-well plate to achieve the desired final concentration. Subsequently, each well was inoculated with 100 μL of 1×10^6 colony forming units (CFU) mL^−1 of the respective microorganism in MHB for E. coli or BHI for E. faecalis to achieve an inoculum density of 5×10^5 CFU mL^−1. The plates were then incubated at 37° C. with shaking (200 rpm) for 18 hrs. […] The results were obtained in triplicate.
The MIC values of COE-D4, COE-D6 and COE-D8 against the reference strain E. coli K12, pathogenic E. coli UT189, and the Gram positive pathogen Enterococcus faecalis OG1RF were determined using a broth microdilution method as described in the general method above. The MICs for E. coli K12 were determined to be 128, 16, and 4 μg mL^−1 for COE-D4, COE-D6, and COE-D8, respectively (FIG. 5a). […] This is not surprising as these two organisms differ in the capsular polysaccharides that they expressed, which are known to hinder the uptake of antimicrobials and mitigate their potency (M. A. Campos, et al., Infect. Immun. 2004, 72, 7107-7114). A K-type capsid comprising α2-8-linked sialic acid is excreted by UT189 and is known to be an important virulence factor for this organism (C. Whitfield, et al., Mol. Microbiol. 1999, 31, 1307-1319; G. G. Anderson, et al., Infect. Immun. 2010, 78, 963-975).

[1] = test system: Staphylococcus aureus 25923; test: MIC against S. aureus 25923; type: cell-based
Experimental: as §1
The antimicrobial effects of COE-D62N and COE-D82N were also tested on the Gram-positive Staphylococcus aureus 25923 and Methicillin-resistant Staphylococcus aureus(MRSA BAA-40), in comparison with vancomycin (FIG. 5b).

[2] = test system: Staphylococcus aureus MRSA ATCC 43300; test: Single-dose growth inhibition, Sa; type: cell-based; conditions: 32 μg/mL single dose, n=2, read-out: Growth inhibition Sa
Experimental: (§2) Inhibition of bacterial growth was determined by measuring the absorbance at 600 nm (OD600), using a Tecan M1000 Pro monochromator plate reader. Growth inhibition was calculated for each well, relative to the reference growths determined from a negative control (media only) and positive control (bacteria without inhibitors) incubated in the same plate. A single dose of 32 μg/mL of COE (final concentration) was used for each test.
(§3) Percentage growth inhibition of an individual sample was calculated based on growth in a reference well determined from negative controls (media only) and positive controls (bacterial/fungal media without inhibitors). Negative inhibition values indicate that the growth rate (or OD600) is higher compared to the reference growth (bacteria/fungi only, set to 0% inhibition). The growth rates for all bacteria and fungi may vary at −/+10%, which were within the reported normal distribution of bacterial/fungal growth. Any significant variations (or outliers/hits) were identified by the modified Z-Score, and the active compounds were selected by a combination of inhibition values and Z-Score.
(§4) A M(i) value of >|2.5| (absolute) would classify the sample as outliers or hits. Active samples were denoted as compounds with inhibition values equal to or above 80% and absolute Z-Score above |2.5| for either replicate (n=2 on different plates). Partial active samples were denoted as compounds with inhibition values from 50% to <80%, or absolute Z-Score below |2.5|.

[3] = test system: Klebsiella pneumoniae MDR ATCC 700603; test: Single-dose growth inhibition, Kp; type: cell-based; conditions: ATCC700603, 32 μg/mL single dose, n=2, read-out: Growth inhibition Kp
Experimental: as §2, §3, §4

[4] = test system: Escherichia coli FDA control ATCC 25922; test: Single-dose growth inhibition, Ec; type: cell-based; conditions: ATCC25922, 32 μg/mL single dose, n=2, read-out: Growth inhibition Ec
Experimental: as §2, §3, §4

[5] = test system: Pseudomonas aeruginosa ATCC 27853; test: Single-dose growth inhibition, Pa; type: cell-based; conditions: ATCC27853, 32 μg/mL single dose, n=2, read-out: Growth inhibition Pa
Experimental: as §2, §3, §4

[6] = test system: Acinetobacter baumannii ATCC 19606; test: Single-dose growth inhibition, Ab; type: cell-based; conditions: ATCC19606, 32 μg/mL single dose, n=2, read-out: Growth inhibition Ab
Experimental: as §2, §3, §4

[7] = test system: Candida albicans ATCC 90028; test: Single-dose growth inhibition, Ca; type: cell-based; conditions: ATCC90028, 32 μg/mL single dose, n=2, read-out: Growth inhibition Ca
Experimental: (§5) Growth inhibition of C. albicans was determined by measuring the absorbance at 530 nm (OD530), while the growth inhibition of C. neoformans was determined by measuring the difference in absorbance between 600 and 570 nm (OD600-570), after the addition of resazurin (0.001 wt. % final concentration) and incubation at 35° C. for additional 2 hrs. The absorbance was measured using a Biotek Synergy HTX plate reader. The relative growth inhibition was calculated for each well, relative to that determined from a negative control (media only) and positive control (bacteria without inhibitors) on the same plate as references. A single dose of 32 μg/mL of COE (final concentration) was used for each test.
as §3, §4

[8] = test system: Cryptococcus neoformans var. grubii H99; ATCC 208821; test: Single-dose growth inhibition, Cn; type: cell-based; conditions: ATCC208821, 32 μg/mL single dose, n=2, read-out: Growth inhibition Cn
Experimental: as §5, §3, §4

[9] = test system: organism classes (Gram-negative, Gram-positive and fungi); test: Single-dose screening summary by organism class; type: cell-based; conditions: 32 μg/mL; 0 = no activity
Experimental: as §3
Z-Score analysis was carried out to investigate outliers or hits among the samples. The Z-Score was calculated based on the sample population using a modified Z-Score method which accounts for possible skewed sample population. The modified method uses median and MAD ([…]) instead of average and standard deviation, and a scaling factor (Iglewicz, B. & Hoaglin, D. C. Volume 16: How to Detect and Handle Outliers. The ASQC Basic Reference in Quality Control: Statistical Techniques, 1993). The equation to calculate the modified Z-Score value is as follow: […]
as §4

[10] = test system: Pseudomonas aeruginosa (PAO1) biofilm; test: Anti-biofilm assay (MBEC plate, crystal violet); type: cell-based; conditions: P. aeruginosa PAO1 biofilm, 1 hour challenge in M9GC
Experimental: Pseudomonas aeruginosa (PAO1) was grown in Luria-Bertani (LB) broth under shaking (200 rpm) at 37° C. for 16-18 hours. The overnight culture was diluted to 1:200 in M9GC media (M9 medium supplemented with glucose and casamino acids), and 200 μL of diluted culture was added to each well of MBEC plate (Innovotech, Canada). After incubating at 37° C. for 5 hours under shaking (200 rpm), biofilm was formed on the pegs of the MBEC plate. The pegs were then rinsed with 1× phosphate buffered saline (PBS) solution (200 μL per well), and exposed to a two-fold dilution series of COE in M9GC media (200 μL per well). The challenge plate was incubated at 37° C. for 1 hour under shaking (200 rpm), and then the pegs were washed using 200 μL PBS before being dipped into 180 μL 0.1 wt. % crystal violet aqueous solution. After incubating at room temperature for 15 minutes, the pegs were rinsed with PBS twice and transferred to a plate containing 200 μL absolute ethanol in each well for 15 minutes. The biofilm mass was quantified by measuring the absorption of crystal violet/ethanol solution at 550 nm. The minimum biofilm dispersal concentration (MBDC) values were determined as the lowest COE concentration at which biofilm attached on the peg was completely dispersed. The results were repeated in triplicate.

E. faecalis = conditions: literature (Tran et al. 2013); cited from earlier work
[11] = test system: multidrug-resistant Gram-negative bacteria; conditions: literature (Falagas et al. 2005); cited from earlier work

C[N+](C)(C)CC[N+](C)(C)CCCCCCOc1ccc(/C=C/c2ccc(/C=C/c3ccc(OCCCCCC[N+](C)(C)CC[N+](C)(C)C)cc3)cc2)cc1 [COE-T62]
MIC (E. coli K12): 16 µg/mL | MIC [1]: 2 µg/mL | inhibition at 32 µg/mL [2]: > 80% | inhibition at 32 µg/mL [3]: < 50% | inhibition at 32 µg/mL [4]: > 80% | inhibition at 32 µg/mL [5]: < 50% | inhibition at 32 µg/mL [6]: < 50% | inhibition at 32 µg/mL [7]: > 80% | inhibition at 32 µg/mL [8]: > 80% | Activity: number of organism classes the compound has been found active against [9]: 3 | Minimum biofilm dispersal concentration [10]: 8 µg/mL

O=C(O)c1cn(C2CC2)c2cc(N3CCNCC3)c(F)cc2c1=O [Ciprofloxacin]
Minimum biofilm dispersal concentration [10]: >512 µg/mL

NC[C@H]1O[C@H](O[C@H]2[C@H](O)[C@@H](O[C@H]3O[C@H](CO)[C@@H](O)[C@H](N)[C@H]3O)[C@H](N)C[C@@H]2N)[C@H](N)C[C@@H]1O [Tobramycin]
Minimum biofilm dispersal concentration [10]: >512 µg/mL

CCCCCCCCCC(=O)N[C@@H](Cc1c[nH]c2ccccc12)C(=O)N[C@H](CC(N)=O)C(=O)N[C@@H](CC(=O)O)C(=O)N[C@@H]1C(=O)NCC(=O)N[C@@H](CCCN)C(=O)N[C@@H](CC(=O)O)C(=O)N[C@H](C)C(=O)N[C@@H](CC(=O)O)C(=O)NCC(=O)N[C@H](CO)C(=O)N[C@@H]([C@H](C)CC(=O)O)C(=O)N[C@@H](CC(=O)c2ccccc2N)C(=O)O[C@@H]1C [daptomycin]
MIC against E. faecalis in brain heart infusion media (E. faecalis): around 3 μg mL^−1

Colistin
Minimum biofilm dispersal concentration [10]: 4 µg/mL | MIC against multidrug-resistant Gram-negative bacteria (in general) [11]: ≤ 4 µg/mL

Gentamicin
Minimum biofilm dispersal concentration [10]: >512 µg/mL
